Laboratory results published in PubChem BioAssay (NCI).
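The compound was tested at five concentrations on cells cultured in 96-well plates, with a 48-hour exposure period. The concentration for full growth arrest is given as TGI.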

What was measured:
Assay in all cases: DTP human tumour cell line panel, 48 h
A549 NSCLC = tested on: A549 NSCLC
BT-549 breast = tested on: BT-549 breast
CCRF-CEM leukemia = tested on: CCRF-CEM leukemia
HCT-15 colon = tested on: HCT-15 colon
IGROV1 ovarian = tested on: IGROV1 ovarian
K-562 leukemia = tested on: K-562 leukemia
NCI/ADR-RES ovarian = tested on: NCI/ADR-RES ovarian
RPMI-8226 leukemia = tested on: RPMI-8226 leukemia
SF-268 CNS = tested on: SF-268 CNS
U251 CNS = tested on: U251 CNS

SMILES	TGI (A549 NSCLC) [µM]	TGI (BT-549 breast) [µM]	TGI (CCRF-CEM leukemia) [µM]	TGI (HCT-15 colon) [µM]	TGI (IGROV1 ovarian) [µM]	TGI (K-562 leukemia) [µM]	TGI (NCI/ADR-RES ovarian) [µM]	TGI (RPMI-8226 leukemia) [µM]	TGI (SF-268 CNS) [µM]	TGI (U251 CNS) [µM]
CC(C)SC(=S)Sc1c(Cl)c(Cl)nc(Cl)c1Cl	40.8	34.2	6.09	> 34.1	20.1	10.7	61.2	4.29	32.9	14
CCCCCCCCCCCC[S+](C)C	26.1	7.68	14.5	53.8	6.16	49.4	> 91.9	28.4	20.2	31.7
